This note sets out measurements from patent US7807162B2, “Single domain VHH antibodies against von Willebrand factor” (Ablynx N.V., priority 2005, dated 2010).

Several values for one entry are separate records, joined by “and”; a condition that tells them apart may be missing. Identical values can stand only once. A value given as a limit tells only on which side of the number the result lay.

Series [1] relates to cyclic flow reductions (CFRs) in injured, stenosed femoral artery. Briefly: Folts thrombosis model in baboons: length/inhibition of cyclic flow reductions (CFRs). Type of series: in vivo, baboon (Papio ursinus). As for the experimental part: The study protocol that was applied is the original Folts model and some modifications described below (Folts J D, et al, Circulation. 1976; 54:365-370). Healthy male or female baboons (Papio ursinus) were used. The animals were 8-17 kg of weight and were disease-free for at least 2 weeks prior to use. The baboons were fed with dry standard food only. The baboons were used at different time points. […] Animals were anaesthetized and body temperature is maintained at 37° C. with a heating table. A segment of a femoral artery was dissected free from surrounding tissue. A shunt was placed between the femoral vein and femoral artery to obtain high shear rates. The mean and phasic blood flow was recorded continuously throughout the experiment. Baseline flow was recorded for 20 minutes. […] A clamp was placed over the injured site to create an external stenosis. A gradual decline in blood flow due to platelet adhesion and aggregation was observed. When flow was reduced to zero, blood flow was restored by opening the clamp to dislodge the platelet-rich thrombus. This repetitive pattern of decreasing blood flow following mechanical restoration is referred to as cyclic flow reductions (CFRs). Additional endothelial injury was repeated if needed to finally obtain stable CFRs in these baboons. The number of times the thrombus needed to be dislodged determines the number of CFRs. FIG. 24 illustrates blood flow pattern during the Folts model in baboons. […] This procedure was repeated for several times with escalating doses of the test substance. The anti-thrombotic effect was quantified by comparing the length of CFRs before and after drug administration. When full inhibition of CFRs was observed, a new injury was applied in order to confirm that the inhibition was an effect of the treatment but not of a natural healing phenomenon.

On the set-up of series [2]: species or system baboon (Papio ursinus). The conditions noted are these: in vivo. The method, then:
The aPTT values observed during the Folts model studies are summarized. […] In these animals, aPTT values are prolonged from the 30-60 IU/kg dose on, as is also observed in patients. Heparin acts as an anticoagulant by forming a complex with antithrombin and catalyzing the inhibition of activated blood coagulation factors such as XIa, IXa, Xa and thrombin (factor IIa). These factors are all involved in the intrinsic coagulation cascade of which its functionality is measured in the aPTT test.

A short description of series [3]: PT during the Folts model. Type of series: in vivo, baboon (Papio ursinus). The settings on record: 240 IU/kg dose.
Where [4] appears, read: number of experiments with inhibition / total number of independent repeats.

Turning to Heparin, the “Length of CFRs” value in series [1] (Heparin final dose 15 IU/kg, individual baboons 6, 7, 8) is 630 s and 208 s and 255 s; in series [1] (Heparin final dose 30 IU/kg, individual baboons 6, 7, 8), 355 s and 241 s and 320 s; in series [1] (Heparin final dose 60 IU/kg, individual baboons 6, 7, 8), 432 s and 246 s and 332 s; in series [1] (Heparin final dose 120 IU/kg, individual baboons 6, 7, 8) it was 610 s and 160 s and 206 s; in series [1] (Heparin final dose 240 IU/kg, individual baboons 6, 7, 8) it was >1800 s and 221 s and 169 s; in series [1] (Heparin-treated, after Epinephrin, baboons 6, 7), 109 s and 65 s. Moreover, in series [1] (baboon 6, first dose), the “dose at which full inhibition of CFRs was obtained” value is 15 IU/kg. The “CFRs upon a new injury” value was “CFRs were inhibited even after a new injury” in series [1] (baboon 6, highest dose of 240 IU/kg) and “the CFRs returned each time” in series [1] (new injury applied at full inhibition of CFRs). Also, the “Inhibition of CFRs” value is listed as “no inhibition of the CFRs could be obtained” in series [1] (baboons 7 and 8, doses as high as 240 IU/kg); 1/3 in series [1] (setting [4]). Further, the “Inhibition of CFRs after administration of Epinephrin” value in series [1] (setting [4]) is given as 0/2. In addition, the “Inhibition of CFRs after new injury” value in series [1] (setting [4]) is listed as 1/3. The “dose from which aPTT values are prolonged” value in series [2] is on record as 30-60 IU/kg. Further, in series [3], the “effect on the PT time” value is reported as “minor increase in PT”.
